Test results reported in patent US9340590B2 (priority 2011, dated 2016).
Where two headings read alike, the source gives them in different places. Positions of bridges follow the written chain, without caps; N, C: chain ends. Residues, ends and D or L forms follow the SMILES beside them.

Assays:
Experiment in all cases: cell-based
[1] = biological target: hNav1.3 (Homo sapiens, UniProt Q9NY46); details: IonWorks Quattro, read-out: IWQ Use Nav1.3
[2] = biological target: hNav1.7 (Homo sapiens, UniProt Q15858); assay type: cell-based
[3] = biological target: hNav1.5 (Homo sapiens, UniProt Q14524); details: IonWorks Quattro, read-out: IWQ Use Nav1.5
[4] = IonWorks Quattro, use-dependent block, hNav1.7, read-out: IWQ Use Nav1.7
[5] = clamped to −110 mV, depolarized to −10 mV, 5 min after compound, n=2

Sequence of hNav1.3 (Q9NY46 whole entry, looked up): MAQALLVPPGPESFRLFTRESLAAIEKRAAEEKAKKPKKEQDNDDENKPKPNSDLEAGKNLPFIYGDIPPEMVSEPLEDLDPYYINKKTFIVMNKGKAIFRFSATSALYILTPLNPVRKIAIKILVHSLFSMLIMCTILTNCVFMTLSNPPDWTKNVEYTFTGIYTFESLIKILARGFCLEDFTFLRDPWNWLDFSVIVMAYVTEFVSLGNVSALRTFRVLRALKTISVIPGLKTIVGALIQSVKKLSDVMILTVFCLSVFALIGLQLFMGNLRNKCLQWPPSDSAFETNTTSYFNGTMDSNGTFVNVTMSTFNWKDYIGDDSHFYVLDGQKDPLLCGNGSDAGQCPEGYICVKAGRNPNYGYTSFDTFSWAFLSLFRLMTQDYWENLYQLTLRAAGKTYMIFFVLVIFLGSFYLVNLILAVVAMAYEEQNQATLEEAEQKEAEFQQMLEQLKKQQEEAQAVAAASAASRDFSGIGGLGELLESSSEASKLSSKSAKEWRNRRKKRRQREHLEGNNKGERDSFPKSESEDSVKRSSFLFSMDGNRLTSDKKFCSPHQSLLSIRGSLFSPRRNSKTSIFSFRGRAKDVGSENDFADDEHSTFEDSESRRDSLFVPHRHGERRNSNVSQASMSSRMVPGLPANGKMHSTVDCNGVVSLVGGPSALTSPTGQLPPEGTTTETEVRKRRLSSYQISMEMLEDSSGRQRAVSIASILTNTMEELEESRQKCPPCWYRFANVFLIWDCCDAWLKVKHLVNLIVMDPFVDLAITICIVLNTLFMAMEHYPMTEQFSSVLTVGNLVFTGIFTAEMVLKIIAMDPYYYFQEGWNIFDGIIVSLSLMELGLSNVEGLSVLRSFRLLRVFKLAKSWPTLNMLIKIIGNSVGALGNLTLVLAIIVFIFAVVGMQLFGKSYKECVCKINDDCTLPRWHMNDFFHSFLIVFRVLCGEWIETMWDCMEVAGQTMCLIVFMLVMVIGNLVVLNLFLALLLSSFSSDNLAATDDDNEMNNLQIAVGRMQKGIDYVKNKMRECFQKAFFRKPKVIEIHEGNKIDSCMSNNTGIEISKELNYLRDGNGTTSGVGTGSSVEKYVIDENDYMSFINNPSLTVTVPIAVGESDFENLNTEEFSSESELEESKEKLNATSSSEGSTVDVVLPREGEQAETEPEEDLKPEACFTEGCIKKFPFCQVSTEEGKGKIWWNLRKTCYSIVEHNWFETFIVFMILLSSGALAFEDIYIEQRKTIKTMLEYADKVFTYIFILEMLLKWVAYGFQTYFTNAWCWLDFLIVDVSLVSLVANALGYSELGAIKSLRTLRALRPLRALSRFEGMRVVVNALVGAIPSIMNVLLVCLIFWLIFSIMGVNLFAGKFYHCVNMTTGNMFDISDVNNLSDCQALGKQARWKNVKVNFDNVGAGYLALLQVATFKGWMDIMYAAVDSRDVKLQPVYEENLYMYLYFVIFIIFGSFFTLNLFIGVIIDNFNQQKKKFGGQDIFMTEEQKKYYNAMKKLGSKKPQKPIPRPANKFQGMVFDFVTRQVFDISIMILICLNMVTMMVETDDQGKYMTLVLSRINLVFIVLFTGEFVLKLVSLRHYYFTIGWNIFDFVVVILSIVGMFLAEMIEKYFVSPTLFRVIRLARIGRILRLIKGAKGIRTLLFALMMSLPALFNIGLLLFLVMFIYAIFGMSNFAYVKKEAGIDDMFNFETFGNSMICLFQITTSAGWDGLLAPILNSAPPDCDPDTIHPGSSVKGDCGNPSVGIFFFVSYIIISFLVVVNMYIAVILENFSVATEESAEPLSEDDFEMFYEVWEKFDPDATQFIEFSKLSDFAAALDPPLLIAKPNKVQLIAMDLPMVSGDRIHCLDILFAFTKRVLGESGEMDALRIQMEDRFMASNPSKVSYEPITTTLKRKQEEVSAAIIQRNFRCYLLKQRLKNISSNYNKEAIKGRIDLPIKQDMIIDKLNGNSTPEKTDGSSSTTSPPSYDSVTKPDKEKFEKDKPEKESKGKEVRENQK
Sequence of hNav1.5 (Q14524 whole entry, looked up): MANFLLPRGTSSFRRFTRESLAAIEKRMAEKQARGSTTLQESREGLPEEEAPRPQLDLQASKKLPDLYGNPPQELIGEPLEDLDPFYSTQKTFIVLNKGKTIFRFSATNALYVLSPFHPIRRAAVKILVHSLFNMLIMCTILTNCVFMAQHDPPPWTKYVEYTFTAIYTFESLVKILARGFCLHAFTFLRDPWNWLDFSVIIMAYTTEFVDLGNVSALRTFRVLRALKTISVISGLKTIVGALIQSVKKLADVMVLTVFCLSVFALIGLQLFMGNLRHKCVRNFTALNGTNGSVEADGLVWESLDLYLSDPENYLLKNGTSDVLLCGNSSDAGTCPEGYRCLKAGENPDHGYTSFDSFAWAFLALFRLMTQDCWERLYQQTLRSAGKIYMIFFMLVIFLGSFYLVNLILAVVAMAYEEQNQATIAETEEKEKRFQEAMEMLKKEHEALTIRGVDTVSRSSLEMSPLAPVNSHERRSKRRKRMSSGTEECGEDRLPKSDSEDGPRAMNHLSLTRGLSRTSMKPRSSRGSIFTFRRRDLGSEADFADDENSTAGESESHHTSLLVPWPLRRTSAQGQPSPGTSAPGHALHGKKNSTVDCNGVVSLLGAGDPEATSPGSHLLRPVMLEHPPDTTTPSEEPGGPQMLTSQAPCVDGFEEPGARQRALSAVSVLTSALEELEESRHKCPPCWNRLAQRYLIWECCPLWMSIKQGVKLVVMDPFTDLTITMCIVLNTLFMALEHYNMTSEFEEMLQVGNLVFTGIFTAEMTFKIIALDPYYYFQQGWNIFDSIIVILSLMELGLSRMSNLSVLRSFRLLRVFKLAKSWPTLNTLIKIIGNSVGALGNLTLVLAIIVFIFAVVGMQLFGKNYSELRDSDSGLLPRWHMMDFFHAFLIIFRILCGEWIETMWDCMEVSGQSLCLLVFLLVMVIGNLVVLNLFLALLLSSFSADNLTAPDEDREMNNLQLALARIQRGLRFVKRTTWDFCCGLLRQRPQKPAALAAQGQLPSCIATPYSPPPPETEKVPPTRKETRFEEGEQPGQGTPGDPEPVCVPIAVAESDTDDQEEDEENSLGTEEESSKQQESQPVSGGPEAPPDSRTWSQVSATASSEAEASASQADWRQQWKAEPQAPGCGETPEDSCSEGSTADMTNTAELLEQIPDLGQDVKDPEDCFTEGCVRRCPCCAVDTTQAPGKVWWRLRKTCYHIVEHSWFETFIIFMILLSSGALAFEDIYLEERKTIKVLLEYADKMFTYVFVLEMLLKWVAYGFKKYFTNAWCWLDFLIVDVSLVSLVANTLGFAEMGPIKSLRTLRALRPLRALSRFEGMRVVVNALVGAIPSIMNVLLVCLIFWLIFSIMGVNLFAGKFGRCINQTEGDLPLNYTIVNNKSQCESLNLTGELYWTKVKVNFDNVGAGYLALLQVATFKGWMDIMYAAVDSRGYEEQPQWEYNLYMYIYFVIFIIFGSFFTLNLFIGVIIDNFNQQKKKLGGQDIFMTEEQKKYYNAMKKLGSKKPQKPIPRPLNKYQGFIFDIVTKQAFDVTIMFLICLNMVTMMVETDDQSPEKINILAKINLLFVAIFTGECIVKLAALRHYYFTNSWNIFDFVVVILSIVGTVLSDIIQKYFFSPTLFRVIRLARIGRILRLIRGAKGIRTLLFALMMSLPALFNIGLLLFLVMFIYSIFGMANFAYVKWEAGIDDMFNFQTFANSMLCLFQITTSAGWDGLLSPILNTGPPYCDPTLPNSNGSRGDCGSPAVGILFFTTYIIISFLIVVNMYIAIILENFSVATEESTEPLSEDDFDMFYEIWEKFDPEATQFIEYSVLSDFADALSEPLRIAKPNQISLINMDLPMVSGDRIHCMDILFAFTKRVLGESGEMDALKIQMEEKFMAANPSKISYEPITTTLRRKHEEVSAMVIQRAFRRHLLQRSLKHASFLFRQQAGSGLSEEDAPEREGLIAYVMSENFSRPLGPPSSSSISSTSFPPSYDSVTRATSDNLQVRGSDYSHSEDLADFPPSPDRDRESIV

CC[C@H](C)[C@@H]1NC(=O)[C@@H]2CSSC[C@@H]3NC(=O)[C@H](C(C)C)NC(=O)[C@H](CC(C)C)NC(=O)[C@H](CC(N)=O)NC(=O)[C@@H]4CCCN4C(=O)[C@H](CCCNC(=N)N)NC(=O)[C@H](CSSC[C@H](NC(=O)[C@@H](N)CC(=O)O)C(=O)N[C@@H](CC(C)C)C(=O)NCC(=O)N[C@@H](Cc4ccccc4)C(=O)N[C@@H](CCSC)C(=O)N[C@@H](CCCNC(=N)N)C(=O)N[C@@H](CCCCN)C(=O)N2)NC(=O)[C@H](CSSC[C@@H](C(=O)N[C@@H](CCCCN)C(=O)N[C@@H](Cc2ccc(O)cc2)C(=O)N[C@H](C(=O)N(C)[C@@H](Cc2ccccc2)C(N)=O)C(C)C)NC(=O)[C@H](Cc2c[nH]c4ccccc24)NC(=O)[C@H](CCCCN)NC(=O)[C@H](Cc2c[nH]cn2)NC(=O)[C@H]([C@@H](C)O)NC(=O)[C@H](CCCNC(=N)N)NC(=O)[C@H](CO)NC3=O)NC(=O)[C@H](CCCCN)NC(=O)[C@H](CC(=O)O)NC(=O)[C@H](CC(N)=O)NC(=O)[C@H](CC(=O)O)NC(=O)[C@@H]2CCCN2C1=O [compound 408] gave an IC50 ([1]; use-dependent, […]) of 4.56 µM, an IC50 ([2]; IonWorks Quattro, use-dependent, […], read-out: IWQ Use Nav1.7) of 10 µM and an IC50 ([3]; use-dependent, […]) of 18.8 µM.
In the case of CC(C)C[C@@H]1NC(=O)[C@@H](NC(=O)[C@@H](N)CC(=O)O)CSSC[C@@H]2NC(=O)[C@@H]3CSSC[C@@H](C(=O)N[C@@H](CCCCN)C(=O)N[C@@H](Cc4ccc(O)cc4)C(=O)N[C@H](C(=O)N[C@@H](Cc4ccccc4)C(N)=O)C(C)C)NC(=O)[C@H](Cc4c[nH]c5ccccc45)NC(=O)[C@H](CCCCN)NC(=O)[C@H](Cc4c[nH]cn4)NC(=O)[C@H]([C@@H](C)O)NC(=O)[C@H](CCCNC(=N)N)NC(=O)[C@H](CO)NC(=O)[C@H](CSSC[C@H](NC(=O)[C@H](CCCCN)NC(=O)[C@H](CCCNC(=N)N)NC(=O)[C@H](Cc4ccccc4)NC(=O)[C@H](C)NC(=O)CNC1=O)C(=O)N[C@@H](CCC(=O)O)C(=O)N1CCC[C@H]1C(=O)N[C@@H](CC(=O)O)C(=O)N[C@@H](CC(N)=O)C(=O)N[C@@H](CC(=O)O)C(=O)N[C@@H](CCCCN)C(=O)N3)NC(=O)[C@H](C(C)C)NC(=O)[C@H](CC(C)C)NC(=O)[C@H](CC(N)=O)NC(=O)[C@@H]1CCCN1C(=O)[C@H](CCCNC(=N)N)NC2=O [compound 724] (H-DCLGAFRKCEPDNDKCCRPNLVCSRTHKWCKYVF-NH2; disulfide 2-17, 9-23, 16-30), the IC50 ([1]; use-dependent block, hNav1.3) is reported as 0.32 µM, the IC50 [2, 4] is reported as 0.38 µM and the IC50 ([3]; use-dependent block, hNav1.5) is reported as 36 µM.
For CC[C@H](C)[C@@H]1NC(=O)[C@H](CC(=O)O)NC(=O)[C@@H]2CCCN2C(=O)[C@H]([C@@H](C)CC)NC(=O)[C@@H]2CSSC[C@@H]3NC(=O)[C@H](C(C)C)NC(=O)[C@H](CC(C)C)NC(=O)[C@H](CC(N)=O)NC(=O)[C@@H]4CCCN4C(=O)[C@H](CCCNC(=N)N)NC(=O)[C@H](CSSC[C@H](NC(=O)[C@@H](N)CC(=O)O)C(=O)N[C@@H](CC(C)C)C(=O)NCC(=O)N[C@@H](C)C(=O)N[C@@H](CC(C)C)C(=O)N[C@@H](CCCNC(=N)N)C(=O)N[C@@H](CCCCN)C(=O)N2)NC(=O)[C@H](CSSC[C@@H](C(=O)N[C@@H](CCCCN)C(=O)N[C@@H](Cc2ccc(O)cc2)C(=O)N[C@H](C(=O)N[C@@H](Cc2ccccc2)C(=O)O)C(C)C)NC(=O)[C@H](Cc2c[nH]c4ccccc24)NC(=O)[C@H](CCCNC(=N)N)NC(=O)[C@H](Cc2c[nH]cn2)NC(=O)[C@H]([C@@H](C)O)NC(=O)[C@H](CCCNC(=N)N)NC(=O)[C@H](CO)NC3=O)NC(=O)[C@H](CCCCN)NC(=O)[C@H](CC(=O)O)NC1=O [compound 865] (H-DCLGALRKCIPDIDKCCRPNLVCSRTHRWCKYVF-OH; disulfide 2-17, 9-23, 16-30), the IC50 ([1]; use-dependent block, hNav1.3) was over 5 µM, the IC50 [2, 4] was over 5 µM and the IC50 ([3]; use-dependent block, hNav1.5) was over 5 µM.
In the case of CC[C@H](C)[C@@H]1NC(=O)[C@@H]2CSSC[C@@H]3NC(=O)[C@H](C(C)C)NC(=O)[C@H](CC(C)C)NC(=O)[C@H](CC(N)=O)NC(=O)[C@@H]4CCCN4C(=O)[C@H](CCCNC(=N)N)NC(=O)[C@H](CSSC[C@H](NC(=O)[C@@H](N)CC(=O)O)C(=O)N[C@@H](CC(C)C)C(=O)NCC(=O)N[C@@H](Cc4ccccc4)C(=O)N[C@@H](CCSC)C(=O)N[C@@H](CCCNC(=N)N)C(=O)N[C@@H](CCCCN)C(=O)N2)NC(=O)[C@H](CSSC[C@@H](C(=O)N[C@@H](CCCCN)C(=O)N[C@@H](Cc2ccc(O)cc2)C(=O)N[C@H](C(=O)N[C@@H](Cc2ccccc2)C(N)=O)C(C)C)NC(=O)[C@H](Cc2c[nH]c4ccccc24)NC(=O)[C@H](CCCCN)NC(=O)[C@H](Cc2cnc[nH]2)NC(=O)[C@H](CC(C)C)NC(=O)[C@H](CCCNC(=N)N)NC(=O)[C@H](CO)NC3=O)NC(=O)[C@H](CCCCN)NC(=O)[C@H](CC(=O)O)NC(=O)[C@H](CC(N)=O)NC(=O)[C@H](CC(=O)O)NC(=O)[C@@H]2CCCN2C1=O [SEQ ID NO: 121, [Leu26]GpTx-1] (H-DCLGFMRKCIPDNDKCCRPNLVCSRLHKWCKYVF-NH2; disulfide 2-17, 9-23, 16-30), the IC50 ([1]; Table 22, use, […]) is reported as 0.07 µM, the IC50 [2] is reported as 0.07 µM and the IC50 ([3]; Table 22, use, […]) is reported as 10.2 µM.
CC[C@H](C)[C@@H]1NC(=O)[C@@H]2CSSC[C@@H]3NC(=O)[C@H](C(C)C)NC(=O)[C@H](CC(C)C)NC(=O)[C@H](CC(N)=O)NC(=O)[C@@H]4CCCN4C(=O)[C@H](CCCNC(=N)N)NC(=O)[C@H](CSSC[C@H](NC(=O)[C@@H](N)CC(=O)O)C(=O)N[C@@H](CC(C)C)C(=O)NCC(=O)N[C@@H](C)C(=O)N[C@@H](CC(C)C)C(=O)N[C@@H](CCCNC(=N)N)C(=O)N[C@@H](CCCCN)C(=O)N2)NC(=O)[C@H](CSSC[C@@H](C(=O)N[C@@H](CCCCN)C(=O)N[C@@H](Cc2ccc(O)cc2)C(=O)N[C@H](C(=O)N[C@@H](Cc2ccccc2)C(=O)O)C(C)C)NC(=O)[C@H](Cc2c[nH]c4ccccc24)NC(=O)CNC(=O)[C@H](Cc2c[nH]cn2)NC(=O)[C@H]([C@@H](C)O)NC(=O)[C@H](CCCNC(=N)N)NC(=O)[C@H](CO)NC3=O)NC(=O)[C@H](CCCCN)NC(=O)[C@H](CC(=O)O)NC(=O)[C@H](CC(N)=O)NC(=O)[C@H](CC(=O)O)NC(=O)[C@@H]2CCCN2C1=O [compound 598] (H-DCLGALRKCIPDNDKCCRPNLVCSRTHGWCKYVF-OH; disulfide 2-17, 9-23, 16-30) showed an IC50 ([1]; use-dependent block, hNav1.3) of 4 µM, an IC50 [2, 4] of over 5 µM and an IC50 ([3]; use-dependent block, hNav1.5) of 12.6 µM.
CC[C@H](C)[C@@H]1NC(=O)[C@@H]2CSSC[C@@H]3NC(=O)[C@H](C(C)C)NC(=O)[C@H](CC(C)C)NC(=O)[C@H](CC(N)=O)NC(=O)[C@@H]4CCCN4C(=O)[C@H](CCCNC(=N)N)NC(=O)[C@H](CSSC[C@H](NC(=O)[C@@H](N)CC(=O)O)C(=O)N[C@@H](CC(C)C)C(=O)NCC(=O)N[C@@H](Cc4ccccc4)C(=O)N[C@@H](CCSC)C(=O)N[C@@H](CCCNC(=N)N)C(=O)N[C@@H](CCCCN)C(=O)N2)NC(=O)[C@H](CSSC[C@@H](C(=O)N[C@@H](CCCCN)C(=O)N[C@@H](CC(C)C)C(=O)N[C@H](C(=O)N[C@@H](Cc2ccccc2)C(N)=O)C(C)C)NC(=O)[C@H](Cc2c[nH]c4ccccc24)NC(=O)[C@H](CCCCN)NC(=O)[C@H](Cc2c[nH]cn2)NC(=O)[C@H]([C@@H](C)O)NC(=O)[C@H](CCCNC(=N)N)NC(=O)[C@H](CO)NC3=O)NC(=O)[C@H](CCCCN)NC(=O)[C@H](CC(=O)O)NC(=O)[C@H](CC(N)=O)NC(=O)[C@H](CC(=O)O)NC(=O)[C@@H]2CCCN2C1=O [compound 373] (H-DCLGFMRKCIPDNDKCCRPNLVCSRTHKWCKLVF-NH2; disulfide 2-17, 9-23, 16-30) showed an IC50 ([1]; Table 25, use, […]) of 0.08 µM, an IC50 ([2]; Table 25, IonWorks Quattro, use, […], read-out: IWQ Use Nav1.7) of 0.12 µM and an IC50 ([3]; Table 25, use, […]) of 8.83 µM.
Molecule CC[C@H](C)[C@@H]1NC(=O)[C@H](Cc2ccccc2)NC(=O)CNC(=O)[C@H](CC(C)C)NC(=O)[C@@H](NC(=O)[C@@H](N)CC(=O)O)CSSC[C@@H]2NC(=O)[C@@H]3CSSC[C@@H](C(=O)N[C@@H](CCCCN)C(=O)N[C@@H](Cc4ccc(O)cc4)C(=O)N[C@H](C(=O)N[C@@H](Cc4ccccc4)C(N)=O)C(C)C)NC(=O)[C@H](Cc4c[nH]c5ccccc45)NC(=O)[C@H](CCCCN)NC(=O)[C@H](Cc4c[nH]cn4)NC(=O)[C@H]([C@@H](C)O)NC(=O)[C@H](CCCNC(=N)N)NC(=O)[C@H](CO)NC(=O)[C@H](CSSC[C@H](NC(=O)[C@H](CCCCN)NC(=O)[C@H](CCCNC(=N)N)NC1=O)C(=O)N[C@@H]([C@@H](C)CC)C(=O)N1CCC[C@H]1C(=O)N[C@@H](CC(=O)O)C(=O)N[C@@H](CC(N)=O)C(=O)N[C@@H](CC(=O)O)C(=O)N[C@@H](CCCCN)C(=O)N3)NC(=O)[C@H](C(C)C)NC(=O)[C@H](CC(C)C)NC(=O)[C@H](CC(N)=O)NC(=O)[C@@H]1CCCN1C(=O)[C@H](CCCNC(=N)N)NC2=O [SEQ ID NO: 282] (H-DCLGFIRKCIPDNDKCCRPNLVCSRTHKWCKYVF-NH2; disulfide 2-17, 9-23, 16-30) has an IC50 [1, 5] of 0.06 µM, an IC50 ([2]; IonWorks Quattro, clamped to −110 mV, depolarized to −10 mV, 5 min after compound, n=2, read-out: IWQ Use Nav1.7) of 0.07 µM and an IC50 [3, 5] of 8.63 µM.
